In the CheMixHub viscosity set:

Assay: xn = mol fraction of the nth substance listed

OCC(O)CO + O
Details | viscosity [mPa·s]
293.15 K, 101.33 kPa, x1 = 0.021 | 1.307
293.15 K, 101.33 kPa, x1 = 0.047 | 1.952
293.15 K, 101.33 kPa, x1 = 0.077 | 2.817
293.15 K, 101.33 kPa, x1 = 0.12 | 4.618
293.15 K, 101.33 kPa, x1 = 0.16 | 7.693
298.15 K, 101 kPa, x1 = 0.0866 | 2.708
298.15 K, 101 kPa, x1 = 0.1636 | 7.353
298.15 K, 101 kPa, x1 = 0.2269 | 13.77
298.15 K, 101 kPa, x1 = 0.3134 | 27.75
298.15 K, 101 kPa, x1 = 0.439 | 59.74
298.15 K, 101 kPa, x1 = 0.5124 | 88.48
298.15 K, 101 kPa, x1 = 0.6378 | 163.1
298.15 K, 101 kPa, x1 = 0.7036 | 220.8
298.15 K, 101 kPa, x1 = 0.7684 | 297.3
298.15 K, 101 kPa, x1 = 0.8478 | 429.9
298.15 K, 101 kPa, x1 = 0.9176 | 604.8
298.15 K, 101 kPa, x1 = 0.9561 | 734.9
300.65 K, 101 kPa, x1 = 0.2636 | 10.84
300.65 K, 101 kPa, x1 = 0.2837 | 12.68
300.65 K, 101 kPa, x1 = 0.3153 | 16.23
300.65 K, 101 kPa, x1 = 0.3391 | 19.56
300.65 K, 101 kPa, x1 = 0.365 | 23.64
300.65 K, 101 kPa, x1 = 0.3785 | 26.06
300.65 K, 101 kPa, x1 = 0.4055 | 31.58
300.65 K, 101 kPa, x1 = 0.4294 | 37.49
300.65 K, 101 kPa, x1 = 0.485 | 54.01
300.65 K, 101 kPa, x1 = 0.5117 | 64.08
300.65 K, 101 kPa, x1 = 0.5472 | 79.81
300.65 K, 101 kPa, x1 = 0.5575 | 85.2
300.65 K, 101 kPa, x1 = 0.5867 | 102.7
300.65 K, 101 kPa, x1 = 0.6349 | 135.1
300.65 K, 101 kPa, x1 = 0.659 | 154.4
300.65 K, 101 kPa, x1 = 0.6978 | 191.6
300.65 K, 101 kPa, x1 = 0.7166 | 212.1
300.65 K, 101 kPa, x1 = 0.7442 | 245.6
300.65 K, 101 kPa, x1 = 0.7646 | 266.3
300.65 K, 101 kPa, x1 = 0.7947 | 309.7
300.65 K, 101 kPa, x1 = 0.8114 | 336.6
300.65 K, 101 kPa, x1 = 0.8274 | 363.6
300.65 K, 101 kPa, x1 = 0.8428 | 389.9
300.65 K, 101 kPa, x1 = 0.859 | 420.7
300.65 K, 101 kPa, x1 = 0.9082 | 519.8
300.65 K, 101 kPa, x1 = 0.9434 | 607.3
300.65 K, 101 kPa, x2 = 0.0171 | 715.5
303.15 K, 101 kPa, x1 = 0.00777 | 0.877
303.15 K, 101 kPa, x1 = 0.0152 | 0.956
303.15 K, 101 kPa, x1 = 0.02262 | 1.04
303.15 K, 101 kPa, x1 = 0.03118 | 1.147
303.15 K, 101 kPa, x1 = 0.03958 | 1.259
303.15 K, 101 kPa, x1 = 0.04604 | 1.351
303.15 K, 101 kPa, x1 = 0.05683 | 1.52
303.15 K, 101 kPa, x1 = 0.07063 | 1.751
303.15 K, 101 kPa, x1 = 0.07885 | 1.907
303.15 K, 101 kPa, x1 = 0.08828 | 2.098
303.15 K, 101 kPa, x1 = 0.1003 | 2.364
303.15 K, 101 kPa, x1 = 0.1112 | 2.625
303.15 K, 101 kPa, x1 = 0.1223 | 2.919
303.15 K, 101 kPa, x1 = 0.1369 | 3.347
303.15 K, 101 kPa, x1 = 0.154 | 3.909
303.15 K, 101 kPa, x1 = 0.171 | 4.552
303.15 K, 101 kPa, x1 = 0.1874 | 5.236
303.15 K, 101 kPa, x1 = 0.1967 | 5.679
303.15 K, 101 kPa, x1 = 0.2067 | 6.187
303.15 K, 101 kPa, x1 = 0.2178 | 6.77
303.15 K, 101 kPa, x1 = 0.225 | 7.222
303.15 K, 101 kPa, x1 = 0.2378 | 7.986
303.15 K, 101 kPa, x1 = 0.2459 | 8.548
303.15 K, 101 kPa, x1 = 0.2622 | 9.75
303.15 K, 101 kPa, x1 = 0.2636 | 9.8
303.15 K, 101 kPa, x1 = 0.2837 | 11.4
303.15 K, 101 kPa, x1 = 0.3153 | 14.53
303.15 K, 101 kPa, x1 = 0.3391 | 17.41
303.15 K, 101 kPa, x1 = 0.365 | 20.97
303.15 K, 101 kPa, x1 = 0.3785 | 23.02
303.15 K, 101 kPa, x1 = 0.4055 | 27.81
303.15 K, 101 kPa, x1 = 0.4294 | 32.86
303.15 K, 101 kPa, x1 = 0.485 | 46.9
303.15 K, 101 kPa, x1 = 0.5117 | 55.29
303.15 K, 101 kPa, x1 = 0.5472 | 68.64
303.15 K, 101 kPa, x1 = 0.5575 | 73.12
303.15 K, 101 kPa, x1 = 0.5867 | 87.65
303.15 K, 101 kPa, x1 = 0.6349 | 114.5
303.15 K, 101 kPa, x1 = 0.659 | 130.4
303.15 K, 101 kPa, x1 = 0.6978 | 161
303.15 K, 101 kPa, x1 = 0.7166 | 177.9
303.15 K, 101.33 kPa, x1 = 0.021 | 1.057
303.15 K, 101.33 kPa, x1 = 0.047 | 1.46
303.15 K, 101.33 kPa, x1 = 0.077 | 2.006
303.15 K, 101.33 kPa, x1 = 0.12 | 3.309
303.15 K, 101.33 kPa, x1 = 0.16 | 5.252
313.15 K, 101.33 kPa, x1 = 0.021 | 0.843
313.15 K, 101.33 kPa, x1 = 0.047 | 1.086
313.15 K, 101.33 kPa, x1 = 0.077 | 1.465
313.15 K, 101.33 kPa, x1 = 0.12 | 2.226
313.15 K, 101.33 kPa, x1 = 0.16 | 3.499
323.15 K, 101.33 kPa, x1 = 0.021 | 0.68
323.15 K, 101.33 kPa, x1 = 0.047 | 0.876
323.15 K, 101.33 kPa, x1 = 0.077 | 1.095
323.15 K, 101.33 kPa, x1 = 0.12 | 1.666
323.15 K, 101.33 kPa, x1 = 0.16 | 2.587

CC(=O)[C@@]12O[C@@H]1C[C@H]1[C@@H]3CCC4=CC(=O)CC[C@]4(C)[C@H]3[C@H](O)C[C@@]12C + ClC(Cl)Cl
viscosity [mPa·s]
Details | 295.7 K | 299.65 K | 303.75 K | 307.65 K | 312.15 K | 317.15 K | 321.15 K
100 kPa, x1 = 0.00321 | 0.57 | 0.536 | 0.52 | 0.498 | 0.491 | 0.48 | 0.454
100 kPa, x1 = 0.004735 | 0.582 | 0.553 | 0.53 | 0.506 | 0.5 | 0.485 | 0.463
100 kPa, x1 = 0.006205 | 0.596 | 0.564 | 0.544 | 0.515 | 0.505 | 0.492 | 0.474
100 kPa, x1 = 0.007786 | 0.612 | 0.577 | 0.552 | 0.524 | 0.515 | 0.499 | 0.48
100 kPa, x1 = 0.009221 | 0.629 | 0.593 | 0.566 | 0.532 | 0.522 | 0.506 | 0.489
100 kPa, x1 = 0.01088 | 0.646 | 0.609 | 0.578 | 0.544 | 0.529 | 0.516 | 0.501
100 kPa, x1 = 0.01243 | 0.662 | 0.617 | 0.585 | 0.554 | 0.54 | 0.523 | 0.513
101 kPa, x1 = 0.003181 | 0.57 | 0.536 | 0.52 | 0.498 | 0.491 | 0.48 | 0.454
101 kPa, x1 = 0.00467 | 0.582 | 0.553 | 0.53 | 0.506 | 0.5 | 0.485 | 0.463
101 kPa, x1 = 0.006096 | 0.596 | 0.564 | 0.544 | 0.515 | 0.505 | 0.492 | 0.474
101 kPa, x1 = 0.007615 | 0.612 | 0.577 | 0.552 | 0.524 | 0.515 | 0.499 | 0.48
101 kPa, x1 = 0.008981 | 0.629 | 0.593 | 0.566 | 0.532 | 0.522 | 0.506 | 0.489
101 kPa, x1 = 0.01055 | 0.646 | 0.609 | 0.578 | 0.544 | 0.529 | 0.516 | 0.501
101 kPa, x1 = 0.01199 | 0.662 | 0.617 | 0.585 | 0.554 | 0.54 | 0.523 | 0.513
